Consider 21 molecules from patent US10000451B2, “MAP4K4 (HGK) inhibitors” (SRI INTERNATIONAL, priority 2015, dated 2018).

Usually IC50 stands for the concentration at which inhibition is half-maximal.

The target in one data set is MAP4K4 (Homo sapiens, UniProt O95819). Briefly: MAP4K4 kinase assay (in-house). Type of data set: biochemical. The text has this:
Signaling pathways mediating anticancer activity. […] We established the MAP4K4 kinase assay in-house and confirmed that the compounds are indeed potent MAP4K4 inhibitors.

The subject of another data set is A498. Briefly: Activity against cancer cell lines. Type of data set: cell-based. Particulars: Homo sapiens. From the text:
(§1) Exemplary data is shown below.

The next data set relates to ACHN. In words: Activity against cancer cell lines. Type of data set: cell-based. As to conditions: Homo sapiens.
Source text: as §1

For another data set, the system named is ADRRES. Briefly: Activity against cancer cell lines. It counts as cell-based.
Source text: as §1

Another data set deals with CAKI1. In words: Activity against cancer cell lines. Particulars: Homo sapiens, CAKI-1. It counts as cell-based.
Source text: as §1

The next data set relates to HCT15. Briefly: Activity against cancer cell lines. Type of data set: cell-based. As to conditions: Homo sapiens, HCT-15.
Source text: as §1

A further data set concerns HL60. Briefly: Activity against cancer cell lines. Type of data set: cell-based.
Source text: as §1

The test system of the next data set is LOXIMVI. Briefly: Activity against cancer cell lines. Type of data set: cell-based. As to conditions: Homo sapiens, LOX IMVI.
Source text: as §1

Another data set concerns M14. Briefly: Activity against cancer cell lines. It counts as cell-based. Particulars: Homo sapiens.
Source text: as §1

A further data set relates to MCF7. Briefly: Activity against cancer cell lines. It counts as cell-based. As to conditions: Homo sapiens.
Source text: as §1

The subject of the next data set is MDAMB435. In words: Activity against cancer cell lines. It counts as cell-based. Particulars: Homo sapiens, MDA-MB-435.
Source text: as §1

In the next data set the test system is MOLT4. In words: Activity against cancer cell lines. It counts as cell-based. As to conditions: Homo sapiens, MOLT-4.
Source text: as §1

Another data set has as its system NCIH522. Briefly: Activity against cancer cell lines. Type of data set: cell-based. As to conditions: Homo sapiens, NCI-H522.
Source text: as §1

In another data set the test system is OVCAR4. In words: Activity against cancer cell lines. It counts as cell-based.
Source text: as §1

In the next data set the test system is RXF393. In words: Activity against cancer cell lines. It counts as cell-based. Particulars: Homo sapiens, RXF 393.
Source text: as §1

The subject of the next data set is SF295. Briefly: Activity against cancer cell lines. It counts as cell-based. As to conditions: Homo sapiens, SF-295.
Source text: as §1

For another data set, the system named is SF539. Briefly: Activity against cancer cell lines. It counts as cell-based. As to conditions: Homo sapiens, SF-539.
Source text: as §1

Another data set has as its system SKMEL2. Briefly: Activity against cancer cell lines. Type of data set: cell-based. Particulars: Homo sapiens, SK-MEL-2.
Source text: as §1

In the next data set the test system is SKMEL5. In words: Activity against cancer cell lines. Type of data set: cell-based. As to conditions: Homo sapiens, SK-MEL-5.
Source text: as §1

In another data set the test system is SNB75. In words: Activity against cancer cell lines. Type of data set: cell-based. Particulars: Homo sapiens, SNB-75, SNB75.
Source text: as §1

In the next data set the test system is UO31. In words: Activity against cancer cell lines. Type of data set: cell-based. Particulars: Homo sapiens, UO-31.
Source text: as §1

The next data set concerns DU-145. Briefly: Prostate cancer cell proliferation assay. It counts as cell-based. As to conditions: Homo sapiens; DU-145, 72 hours; read-out: IC50 against prostate cancer cell lines. From the text: (§2) The dose-response curves of cell growth inhibition were consistent.
(§3) Cell proliferation assays.

Another data set relates to LNCaP. Briefly: Prostate cancer cell proliferation assay. Type of data set: cell-based. Particulars: Homo sapiens, 72 hours, read-out: IC50 against prostate cancer cell lines.
Source text: as §2, §3

Another data set deals with PC-3. Briefly: Prostate cancer cell proliferation assay. It counts as cell-based. As to conditions: Homo sapiens; PC-3, 72 hours; read-out: IC50 against prostate cancer cell lines.
Source text: as §2, §3

Data set [1] deals with PC-3 prostate cancer xenografts. In words: Antitumor activity in PC-3 xenografts. Particulars: nude mice. It counts as in vivo. How it is done: In vivo efficacy studies: antitumor and antimetastatic effects against androgen-insensitive prostate cancer. Antitumor activity was tested in nude mice bearing aggressive, androgen-independent PC-3 prostate cancer xenografts. Docetaxel, a standard treatment for metastatic prostate cancer, was included in the study as a positive control. Docetaxel was administered at its maximum tolerated dose (MTD) via intraperitoneal (IP) (Q3Dx2; Monday, Friday). Mice were orally treated with compound in 0.5% HPC with 4 different treatment regimens. The control group was treated with vehicle (0.5% HPC) only. Treatment was initiated when average tumor volume reached 100 mm^3 (10 mice per group).
The compounds show a significant dose-dependent growth inhibition of prostate tumor. Docetaxel at its MTD (7.5 mg/kg; Q3Dx2) produces only 10-15% growth inhibition. […] Treatment with representative compounds (12.5, 25 and 50 mg/kg/day) caused a significant dose-dependent growth reduction of PC-3 tumors.

The test system of a further data set is BT549. In words: Breast cancer cell line growth inhibition. Type of data set: cell-based. Particulars: Homo sapiens, BT-549; BT549, triple negative; read-out: IC50 against breast cancer cell lines. The text has this: (§4) Generally, their potency is positively correlated with MAP4K4 expression in cancer cell lines.
For a further data set, the system named is HS578T. In words: Breast cancer cell line growth inhibition. It counts as cell-based. Particulars: Homo sapiens, Hs-578T, triple negative, read-out: IC50 against breast cancer cell lines.
Source text: as §4

The test system of the next data set is MCF-7. In words: Breast cancer cell line growth inhibition. Type of data set: cell-based. Particulars: Homo sapiens, MCF7; MCF-7, ER (+); read-out: IC50 against breast cancer cell lines.
Source text: as §4

In another data set the test system is MDA-MB-231. Briefly: Breast cancer cell line growth inhibition. It counts as cell-based. As to conditions: Homo sapiens; MDA-MB-231, triple negative; read-out: IC50 against breast cancer cell lines.
Source text: as §4

A further data set has as its system T47D. Briefly: Breast cancer cell line growth inhibition. It counts as cell-based. As to conditions: Homo sapiens, ER (+), read-out: IC50 against breast cancer cell lines.
Source text: as §4

Sequence of MAP4K4 (O95819 whole entry): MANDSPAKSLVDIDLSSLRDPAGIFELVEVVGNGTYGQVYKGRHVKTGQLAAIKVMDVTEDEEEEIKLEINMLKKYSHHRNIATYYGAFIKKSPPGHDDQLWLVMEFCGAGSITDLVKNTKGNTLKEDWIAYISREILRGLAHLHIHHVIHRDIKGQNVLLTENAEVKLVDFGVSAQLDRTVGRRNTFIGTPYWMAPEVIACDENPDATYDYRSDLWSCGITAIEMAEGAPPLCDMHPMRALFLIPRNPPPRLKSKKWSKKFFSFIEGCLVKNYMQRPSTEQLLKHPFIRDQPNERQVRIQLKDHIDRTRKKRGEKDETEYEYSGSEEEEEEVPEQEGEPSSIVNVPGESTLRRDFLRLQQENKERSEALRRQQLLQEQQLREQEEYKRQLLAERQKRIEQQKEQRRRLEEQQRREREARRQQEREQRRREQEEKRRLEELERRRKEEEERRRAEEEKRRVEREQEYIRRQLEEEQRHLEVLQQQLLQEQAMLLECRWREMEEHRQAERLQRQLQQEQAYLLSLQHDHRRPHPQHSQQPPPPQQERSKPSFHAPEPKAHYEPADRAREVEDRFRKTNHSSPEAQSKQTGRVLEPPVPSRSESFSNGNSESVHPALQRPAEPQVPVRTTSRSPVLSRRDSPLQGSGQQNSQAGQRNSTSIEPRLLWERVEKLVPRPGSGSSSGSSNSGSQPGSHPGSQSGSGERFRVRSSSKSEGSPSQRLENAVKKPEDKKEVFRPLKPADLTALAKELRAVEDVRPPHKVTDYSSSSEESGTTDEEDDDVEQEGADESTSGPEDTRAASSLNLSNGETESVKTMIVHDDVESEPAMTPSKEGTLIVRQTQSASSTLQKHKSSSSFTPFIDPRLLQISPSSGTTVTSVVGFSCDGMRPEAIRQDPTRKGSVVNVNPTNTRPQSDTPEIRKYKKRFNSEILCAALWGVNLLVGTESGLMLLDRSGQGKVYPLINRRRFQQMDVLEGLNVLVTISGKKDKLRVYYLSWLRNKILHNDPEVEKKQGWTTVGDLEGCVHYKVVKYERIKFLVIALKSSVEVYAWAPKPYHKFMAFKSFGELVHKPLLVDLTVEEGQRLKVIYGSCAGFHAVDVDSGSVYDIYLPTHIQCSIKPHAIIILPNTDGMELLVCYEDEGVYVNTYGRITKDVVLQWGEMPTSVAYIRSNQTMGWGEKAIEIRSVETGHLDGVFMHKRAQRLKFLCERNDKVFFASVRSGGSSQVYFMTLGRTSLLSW

The molecule `COc1ccc2[nH]c(C(=O)c3ccc4[nH]nc(F)c4c3)cc2c1` [Cmpd 21, (3-fluoro-1H-indazol-5-yl)(5-methoxy-1H-indol-2-yl)methanone] showed an IC50 against MAP4K4 of 100 nM.
Turning to `COc1ccc2[nH]c(C(=NO)c3ccc4[nH]ccc4c3)cc2c1` [Cmpd 37, (1H-indol-5-yl)(5-methoxy-1H-indol-2-yl)methanone oxime], the IC50 in the data set on A498 came out at 330 nM; with ACHN it was 760 nM; in the data set with ADRRES, 64 nM; with CAKI1 it was 67 nM; in the data set on HCT15, 68 nM; in the data set with HL60 (HL60), 78 nM. Besides, the IC50 in the data set on HL60 (Homo sapiens, HL-60, HL60) was determined as 81 nM; with LOXIMVI, 440 nM; in the data set on M14 it was 110 nM; in the data set on MCF7, 85 nM; with MDAMB435, 66 nM; with MOLT4 it was 120 nM. Moreover, the IC50 with NCIH522 worked out at 100 nM; in the data set on OVCAR4 (Homo sapiens, OVCAR-4, OVCAR4), 150 nM; in the data set with OVCAR4 (OVCAR4), 110 nM; with RXF393 it was 140 nM; in the data set with SF295, 250 nM; with SF539, 170 nM. The IC50 in the data set with SKMEL2 was found to be 580 nM; in the data set with SKMEL5, 210 nM; with SNB75, 110 nM; in the data set on UO31 it was 690 nM.
On to `COc1ccc2[nH]c(C(=O)c3ccc4[nH]cc(C)c4c3)cc2c1` [Cmpd 4, (5-methoxy-1H-indol-2-yl)(3-methyl-1H-indol-5-yl)methanone], for which, on MAP4K4, the IC50 was 380 nM.
As to `CC(=O)O[C@@]12CO[C@@H]1C[C@H](O)[C@@]1(C)C(=O)[C@H](O)C3=C(C)[C@@H](OC(=O)[C@H](O)[C@@H](NC(=O)OC(C)(C)C)c4ccccc4)C[C@@](O)([C@@H](OC(=O)c4ccccc4)[C@H]21)C3(C)C` [Docetaxel, reference compound], the IC50 turned out to be 72 nM in the data set on DU-145, 31 nM with LNCaP and 95 nM with PC-3. For the same molecule, in [1] (PC-3 xenografts, MTD 7.5 mg/kg IP Q3Dx2), the tumor growth inhibition was 10-15%. Further, the lethal toxicity entry in [1] (7.5 mg/kg IP, after the 4th injection) is “mice died on Day 13 due to lethal toxicity”.
Molecule `COc1ccc2[nH]c(C(=O)c3ccc4[nH]nc(Cl)c4c3)cc2c1` [Cmpd 20, (3-chloro-1H-indazol-5-yl)(5-methoxy-1H-indol-2-yl)methanone] registered a half-inhibitory concentration (IC50) against MAP4K4 of 310 nM.
Consider `COc1ccc2[nH]c(C(=O)c3ccc4[nH]ncc4c3)cc2c1` [Cmpd 17, (1H-indazol-5-yl)(5-methoxy-1H-indol-2-yl)methanone], for which the IC50 against MAP4K4 is 260 nM; in the data set with BT549, 9 nM; with HS578T, 10 nM; in the data set on MCF-7, 53 nM; with MDA-MB-231 it was 10 nM; with T47D, 17 nM. Also, the IC50 came to 14 nM with DU-145, 9 nM in the data set with LNCaP and 6 nM in the data set with PC-3.
On MAP4K4, `CCc1n[nH]c2ccc(C(=O)c3cc4cc(OC)ccc4[nH]3)cc12` [Cmpd 19, (3-ethyl-1H-indazol-5-yl)(5-methoxy-1H-indol-2-yl)methanone] gave an IC50 of 9 nM.
The same measure, in the same setting: next, `COc1cccc2[nH]c(C(=O)c3ccc4[nH]nc(C)c4c3)cc12` [Cmpd 29, (4-methoxy-1H-indol-2-yl)(3-methyl-1H-indazol-5-yl)methanone]: 650 nM; `COc1ccc2[nH]c(C(=O)c3cnc4[nH]ccc4c3)cc2c1` [Cmpd 33, (5-methoxy-1H-indol-2-yl)(1H-pyrrolo[2,3-b]pyridin-5-yl)methanone]: 46 nM.
For the molecule `CC(=O)O[C@H]1C(=O)[C@@]2(C)[C@H]([C@H](OC(=O)c3ccccc3)[C@]3(O)C[C@H](OC(=O)[C@H](O)[C@@H](NC(=O)c4ccccc4)c4ccccc4)C(C)=C1C3(C)C)[C@]1(OC(C)=O)CO[C@@H]1C[C@@H]2O` [Paclitaxel, reference compound], the IC50 in the data set on BT549 was 151 nM; in the data set with HS578T, 148 nM; in the data set with MCF-7, 156 nM; in the data set with MDA-MB-231, 153 nM; with T47D it was 152 nM.
In turn, `COc1ccc2[nH]c(C(=O)c3ccc4[nH]c(C(F)(F)F)nc4c3)cc2c1` [Cmpd 35, (5-methoxy-1H-indol-2-yl)(2-(trifluoromethyl)-1H-benzo[d]imidazol-5-yl)methanone] had an IC50 on MAP4K4 of 7500 nM.
Turning to `COc1ccc2[nH]c(C(=O)c3ccc4[nH]ccc4c3)c(C)c2c1` [Cmpd 5, (1H-indol-5-yl)(5-methoxy-3-methyl-1H-indol-2-yl)methanone], 300 nM corresponded to half-maximal inhibition against MAP4K4 (IC50).
`COc1ccc2[nH]c(C(=O)c3ccc4[nH]ncc4c3)c(Cl)c2c1` [Cmpd 23, (3-chloro-5-methoxy-1H-indol-2-yl)(1H-indazol-5-yl)methanone]: the IC50 at MAP4K4 came out at 410 nM; with BT549, 23 nM; with HS578T, 29 nM; in the data set with MCF-7, 114 nM; with MDA-MB-231 it was 28 nM; in the data set on T47D, 44 nM. The IC50 came to 53 nM in the data set with DU-145, 28 nM in the data set with LNCaP and 20 nM in the data set on PC-3.
Take `COc1cc2cc(C(=O)c3ccc4[nH]nc(C)c4c3)[nH]c2cn1` [Cmpd 31, (5-methoxy-1H-pyrrolo[2,3-c]pyridin-2-yl)(3-methyl-1H-indazol-5-yl)methanone]: the IC50 against MAP4K4 turned out to be 13 nM.
Consider `COc1cc2cc(C(=O)c3ccc4[nH]ccc4c3)[nH]c2cc1OC` [Cmpd 15, (5,6-dimethoxy-1H-indol-2-yl)(1H-indol-5-yl)methanone], for which the IC50 in the data set on BT549 was determined as 17 nM; in the data set with HS578T, 16 nM; in the data set on MCF-7, 123 nM; in the data set on MDA-MB-231 it was 21 nM; in the data set on T47D, 30 nM; with DU-145 it was 35 nM. The IC50 came out at 21 nM in the data set with LNCaP and 17 nM in the data set on PC-3.
On MAP4K4, `Cc1c[nH]c2ccc(C(=O)c3cc4cc(O)ccc4[nH]3)cc12` [Cmpd 12, (5-hydroxy-1H-indol-2-yl)(3-methyl-1H-indol-5-yl)methanone] registered an IC50 of 1000 nM.
The same measure, in the same setting: to `COc1ccc2[nH]c(C(=O)c3ccc4[nH]nnc4c3)cc2c1` [Cmpd 36, (1H-benzo[d][1,2,3]triazol-5-yl)(5-methoxy-1H-indol-2-yl)methanone] belongs 570 nM; to `COc1ccc2[nH]c(C(=O)c3ccc4[nH]ncc4c3)cc2c1Cl` [Cmpd 24, (4-chloro-5-methoxy-1H-indol-2-yl)(1H-indazol-5-yl)methanone], 12000 nM; to `COc1ccc2[nH]c(C(=O)c3ccc4[nH]cc(Cl)c4c3)cc2c1` [Cmpd 9, (3-chloro-1H-indol-5-yl)(5-methoxy-1H-indol-2-yl)methanone], 1700 nM.
Take `COc1cccc2cc(C(=O)c3ccc4[nH]nc(C)c4c3)[nH]c12` [Cmpd 28, (7-methoxy-1H-indol-2-yl)(3-methyl-1H-indazol-5-yl)methanone]: inhibition on MAP4K4 was half-maximal at 650 nM (IC50).
`COc1ccc2[nH]c(C(=O)c3ccc4[nH]nc(CN5CCOCC5)c4c3)cc2c1` [Cmpd 22, (5-methoxy-1H-indol-2-yl)(3-(morpholinomethyl)-1H-indazol-5-yl)methanone] gave an IC50 on MAP4K4 of 21000 nM.
